Source: patent US11285147B2, “Neuroprotective agents for treatment of neurodegenerative diseases” (WAYNE STATE UNIVERSITY, priority 2018, dated 2022)

Columns and labels:
Aβ1-42 fibrils = target: T1, Aβ1-42 fibrils (Homo sapiens, UniProt P05067); assay: Dissociation of preformed Aβ1-42 aggregates, ThT fluorescence; format: biochemical; conditions: Aβ1-42 fibrils 10 μM, test compounds 20 μM, 24 h
T1 construct: disaggregation activity of Aβ1-42 peptide
Protocol: (§1) FIGS. 3A and 3B. Inhibition and dissociation of Aβ1-42 oligomer formation by: a) ThT fluorescence of Aβ1-42 (10 μM) with or without incubation with test compounds (20 μM) for 24 h. The ThT fluorescence of Aβ1-42 at 0 h was taken as 100%. b) Aβ1-42 fibrils (10 μM) were incubated with test compounds (20 μM) for a period of 24 h. The ThT fluorescence of Aβ1-42 aggregates at 0 h was considered as 100%
as §1, with “3B show inhibition” for “3B. Inhibition”
(§2) Similar to the effect of the drugs on α-syn, interaction of compounds with Aβ1-42 peptide clearly indicated a significant effect in inhibiting aggregation in a time dependent manner as indicated by decrease in ThT activity (FIG. 3a). Similarly, test compounds were able to decrease ThT activity of preformed Aβ aggregates in a time dependent manner, reflecting its effect in disrupting structure of aggregates (FIG. 3b). On the other hand, incubation of aggregates itself led to a gradual increase in ThT activity (FIG. 3b).

αSN (alpha synuclein) = αSN (alpha synuclein) (Homo sapiens, UniProt P37840); assay: Inhibition of αSN fibrillization, ThT fluorescence assay; format: biochemical
Protocol: FIGS. 2A-B. (A) Inhibition of aSN fibrillization by D-687 and D-688. The drugs were incubated with aSN over a period of six days and the fibrilization was measured by ThT fluorescence assay. Data Values shown are means±SEMs of three independent experiments. (B) PC12 cells were treated with 10 μM prefabricated aSN aggregates formed in presence of drugs collected at day 0 and day 6. Values shown are means±SEMs of three independent experiments performed in 4-6 replicates. One way ANOVA analysis followed by Tukey's Multiple Comparison post hoc test were performed. (*p<0.01 compared to the control).
We assessed the ability of our compounds, D-687 and D-688, to alter aggregation and cytotoxicity after co-incubating αSN with these drugs for 6 days followed by evaluation of ThT fluorescence activity and cell viability experiment with the PC12 cells. […] In order to maintain identical condition, cellular viability was determined by using samples from various experiments diluted to maintain a final concentration of 10 μM of αSN and 20 μM of drugs.
FIG. 2 provides (A) Inhibition of aSN fibrillization by D-687 and D-688. The drugs were incubated with aSN over a period of six days and the fibrilization was measured by ThT fluorescence assay. Data Values shown are means±SEMs of three independent experiments. […]

Aβ1-42 peptide = target: T2, Aβ1-42 peptide (Homo sapiens, UniProt P05067); assay: Inhibition of Aβ1-42 aggregation, ThT fluorescence; format: biochemical; conditions: Aβ1-42 10 μM, test compounds 20 μM, 24 h
T2 construct: disaggregation activity of Aβ1-42 peptide
Protocol: as §1
as §1, with “3B show inhibition” for “3B. Inhibition”
as §2

D3 receptor = D3 receptor (UniProt P19020); format: binding; conditions: read-out: Ki (nM) D3, [3H]spiroperidol; cloned D3 in HEK-293 cells; mean ± SEM of 3-6 experiments
D2L receptor = D2L receptor (Rattus norvegicus, UniProt P61169); assay: biochemical
Chain of D2L receptor (P61169 whole entry): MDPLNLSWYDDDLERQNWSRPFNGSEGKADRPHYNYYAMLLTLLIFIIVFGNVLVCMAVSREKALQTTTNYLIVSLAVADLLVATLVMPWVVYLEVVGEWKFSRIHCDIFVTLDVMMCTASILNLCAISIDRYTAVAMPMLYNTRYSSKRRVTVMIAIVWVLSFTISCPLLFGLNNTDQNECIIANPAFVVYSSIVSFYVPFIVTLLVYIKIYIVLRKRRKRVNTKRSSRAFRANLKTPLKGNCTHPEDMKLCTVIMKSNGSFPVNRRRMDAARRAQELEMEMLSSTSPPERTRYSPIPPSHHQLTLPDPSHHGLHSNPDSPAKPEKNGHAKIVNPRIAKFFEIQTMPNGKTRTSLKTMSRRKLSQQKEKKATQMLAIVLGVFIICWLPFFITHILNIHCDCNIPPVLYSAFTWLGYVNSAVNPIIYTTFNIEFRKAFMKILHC

T1 sequence (P05067 672-713 limits assumed): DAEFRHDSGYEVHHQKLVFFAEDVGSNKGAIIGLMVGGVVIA
T2 sequence (P05067 672-713 limits assumed): as above

Row | Compound | Disaggregation of preformed Aβ1-42 aggregates (Aβ1-42 fibrils) | Inhibition of aggregation of aSN protein (overall conclusion) (αSN (alpha synuclein)) | Inhibition of aggregation of Aβ1-42 peptide (Aβ1-42 peptide) | Ki (D3 receptor) [nM] | Ki (D2L receptor) [nM]
1 | 4′-[4-(2-Diisopropylamino-ethyl)-piperazin-1-yl]-biphenyl-3,4-diol [Compound D-687] | disaggregate | potently inhibited aggregation | potently inhibited aggregation | – | –
2 | CCCN(CCc1cc(O)c(CCN(CCC)[C@H]2CCc3nc(N)sc3C2)cc1O)[C@H]1CCc2nc(N)sc2C1 [12 (D-673), 2,5-bis(2-(((S)-2-amino-4,5,6,7-tetrahydrobenzo[d]thiazol-6-yl)(propyl)amino)-ethyl)benzene-1,4-diol] | – | – | – | 6.87 ± 0.11 | 54.7 ± 3.3
3 | CCN(CC)CCN1CCN(c2ccc(-c3ccc(O)c(O)c3)cc2)CC1 [Compound D690, 4′-[4-(2-Diethylamino-ethyl)-piperazin-1-yl]-biphenyl-3,4-diol] | disaggregate | potently inhibited aggregation | potently inhibited aggregation | – | –
